Data reported in ChEMBL document CHEMBL5465560, “Selectivity Literature for EUbOPEN Chemogenomic Library” (2024).
Blank lines part the entries; values can stand above or below the compound they belong to.

Key:
[1] = target: Casein kinase I isoform alpha (Homo sapiens, UniProt P48729); experiment: Selectivity interaction (Ambit KINOMEscan and KiNATiv profiling in Jurkat cells) EUB0000090b CSNK1A1; assay type: cell-based; settings: at 1 µM
[2] = target: Bone morphogenetic protein receptor type-1B (Homo sapiens, UniProt O00238); experiment: Selectivity interaction (Ambit KINOMEscan and KiNATiv profiling in Jurkat cells) EUB0000090b BMPR1B; assay type: cell-based; settings: at 1 µM
Chain of Bone morphogenetic protein receptor type-1B (O00238 whole entry): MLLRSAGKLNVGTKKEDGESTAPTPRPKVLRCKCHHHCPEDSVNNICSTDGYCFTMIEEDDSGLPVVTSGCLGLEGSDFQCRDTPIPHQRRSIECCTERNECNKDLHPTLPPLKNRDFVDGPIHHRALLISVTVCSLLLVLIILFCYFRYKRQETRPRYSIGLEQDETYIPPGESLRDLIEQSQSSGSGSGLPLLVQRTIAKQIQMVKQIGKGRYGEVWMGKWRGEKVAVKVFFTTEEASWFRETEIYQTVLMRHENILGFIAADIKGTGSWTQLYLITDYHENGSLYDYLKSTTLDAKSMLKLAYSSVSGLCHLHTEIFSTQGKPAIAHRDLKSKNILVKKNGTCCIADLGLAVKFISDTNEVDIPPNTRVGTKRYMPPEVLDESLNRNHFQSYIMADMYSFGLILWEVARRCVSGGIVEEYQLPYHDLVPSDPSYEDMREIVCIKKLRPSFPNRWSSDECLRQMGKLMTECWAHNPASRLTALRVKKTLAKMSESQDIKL

[3] = target: Ribosomal protein S6 kinase alpha-2 (Homo sapiens) (UniProt Q15349); experiment: Selectivity interaction (ActivX KiNativ screen (kinase selectivity in THP-1 cell lysates)) EUB0000639a RPS6KA2; assay type: subcellular; settings: lysate, at 0.04 µM
Chain of Ribosomal protein S6 kinase alpha-2 (Homo sapiens) (Q15349 whole entry): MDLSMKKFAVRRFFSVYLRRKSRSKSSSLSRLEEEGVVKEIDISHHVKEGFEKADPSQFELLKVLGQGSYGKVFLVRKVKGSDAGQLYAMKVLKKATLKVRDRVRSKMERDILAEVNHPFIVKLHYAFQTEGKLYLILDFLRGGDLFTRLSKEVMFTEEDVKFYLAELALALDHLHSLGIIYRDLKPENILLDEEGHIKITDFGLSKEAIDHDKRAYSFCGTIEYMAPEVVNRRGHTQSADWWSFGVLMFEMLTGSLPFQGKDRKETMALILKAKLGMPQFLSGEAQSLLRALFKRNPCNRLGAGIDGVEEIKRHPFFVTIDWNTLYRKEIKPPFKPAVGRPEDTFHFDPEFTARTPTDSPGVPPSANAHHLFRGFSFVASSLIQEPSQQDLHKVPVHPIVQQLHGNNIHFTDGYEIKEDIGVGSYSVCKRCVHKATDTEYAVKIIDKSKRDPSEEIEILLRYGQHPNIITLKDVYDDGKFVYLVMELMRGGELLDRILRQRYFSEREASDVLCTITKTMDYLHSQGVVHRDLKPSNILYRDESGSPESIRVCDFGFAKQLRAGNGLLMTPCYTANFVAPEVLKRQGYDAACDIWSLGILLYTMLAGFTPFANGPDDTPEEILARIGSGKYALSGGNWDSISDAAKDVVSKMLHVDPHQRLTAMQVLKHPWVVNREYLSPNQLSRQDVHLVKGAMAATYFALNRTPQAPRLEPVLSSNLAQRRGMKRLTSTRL

[4] = target: Protein-tyrosine kinase 2-beta (Homo sapiens) (UniProt Q14289); experiment: Selectivity interaction (Kinase panel (Invitrogen)) EUB0000639a PTK2B; settings: at 200 nM
Chain of Protein-tyrosine kinase 2-beta (Homo sapiens) (Q14289 whole entry, looked up): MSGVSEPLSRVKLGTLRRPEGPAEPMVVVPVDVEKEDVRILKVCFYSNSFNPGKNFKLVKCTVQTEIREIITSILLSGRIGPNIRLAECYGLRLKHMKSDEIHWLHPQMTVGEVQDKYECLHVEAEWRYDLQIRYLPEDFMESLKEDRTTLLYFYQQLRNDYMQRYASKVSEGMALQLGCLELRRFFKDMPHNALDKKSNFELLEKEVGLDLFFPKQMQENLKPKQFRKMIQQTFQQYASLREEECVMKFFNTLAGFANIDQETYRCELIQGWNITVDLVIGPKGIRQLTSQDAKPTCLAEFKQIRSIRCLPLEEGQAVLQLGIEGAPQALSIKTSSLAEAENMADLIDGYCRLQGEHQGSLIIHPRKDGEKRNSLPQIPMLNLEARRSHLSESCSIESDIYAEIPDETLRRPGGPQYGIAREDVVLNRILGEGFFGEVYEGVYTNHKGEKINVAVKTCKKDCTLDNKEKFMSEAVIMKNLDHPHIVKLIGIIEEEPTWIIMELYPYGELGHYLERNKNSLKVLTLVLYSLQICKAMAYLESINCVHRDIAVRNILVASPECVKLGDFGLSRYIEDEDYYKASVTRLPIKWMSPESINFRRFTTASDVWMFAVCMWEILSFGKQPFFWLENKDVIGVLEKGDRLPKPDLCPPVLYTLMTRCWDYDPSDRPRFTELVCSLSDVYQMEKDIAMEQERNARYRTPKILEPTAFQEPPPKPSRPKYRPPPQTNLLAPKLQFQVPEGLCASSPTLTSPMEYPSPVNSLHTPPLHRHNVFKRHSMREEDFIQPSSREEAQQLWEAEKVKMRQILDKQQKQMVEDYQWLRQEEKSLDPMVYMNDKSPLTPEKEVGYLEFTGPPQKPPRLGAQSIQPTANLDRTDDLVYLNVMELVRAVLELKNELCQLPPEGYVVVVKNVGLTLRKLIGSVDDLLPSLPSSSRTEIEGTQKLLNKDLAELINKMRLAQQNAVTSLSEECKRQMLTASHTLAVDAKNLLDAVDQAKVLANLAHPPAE

[5] = target: SRSF protein kinase 2 (Homo sapiens) (UniProt P78362); experiment: Selectivity interaction (Kinase panel (Z-LYTE Assay)) EUB0001632a SRPK2; settings: at 10 µM
Chain of SRSF protein kinase 2 (Homo sapiens) (P78362 whole entry, looked up): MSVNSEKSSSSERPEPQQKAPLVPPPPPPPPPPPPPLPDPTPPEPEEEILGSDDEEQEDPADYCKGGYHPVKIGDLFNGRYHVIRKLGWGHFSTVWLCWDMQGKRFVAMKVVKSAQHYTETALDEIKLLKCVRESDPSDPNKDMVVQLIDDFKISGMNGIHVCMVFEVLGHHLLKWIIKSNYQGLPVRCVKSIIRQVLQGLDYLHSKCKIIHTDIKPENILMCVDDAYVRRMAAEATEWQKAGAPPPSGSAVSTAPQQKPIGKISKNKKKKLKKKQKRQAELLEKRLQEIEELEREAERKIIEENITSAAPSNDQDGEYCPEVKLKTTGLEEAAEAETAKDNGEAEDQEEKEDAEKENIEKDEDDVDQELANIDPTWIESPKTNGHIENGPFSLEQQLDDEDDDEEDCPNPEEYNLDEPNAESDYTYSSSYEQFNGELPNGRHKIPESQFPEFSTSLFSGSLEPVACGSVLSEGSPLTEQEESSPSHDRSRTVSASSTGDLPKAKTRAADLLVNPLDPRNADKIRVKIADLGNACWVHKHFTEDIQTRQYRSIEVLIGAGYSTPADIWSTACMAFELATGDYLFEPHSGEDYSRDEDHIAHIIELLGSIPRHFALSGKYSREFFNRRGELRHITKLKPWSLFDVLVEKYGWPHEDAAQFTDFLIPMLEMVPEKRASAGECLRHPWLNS

[6] = target: Serine/threonine-protein kinase pim-2 (Homo sapiens, UniProt Q9P1W9); experiment: Selectivity interaction (KinomeScan (DiscoverX)) EUB0000695a PIM2; settings: at 100 nM
Chain of Serine/threonine-protein kinase pim-2 (Q9P1W9 whole entry, looked up): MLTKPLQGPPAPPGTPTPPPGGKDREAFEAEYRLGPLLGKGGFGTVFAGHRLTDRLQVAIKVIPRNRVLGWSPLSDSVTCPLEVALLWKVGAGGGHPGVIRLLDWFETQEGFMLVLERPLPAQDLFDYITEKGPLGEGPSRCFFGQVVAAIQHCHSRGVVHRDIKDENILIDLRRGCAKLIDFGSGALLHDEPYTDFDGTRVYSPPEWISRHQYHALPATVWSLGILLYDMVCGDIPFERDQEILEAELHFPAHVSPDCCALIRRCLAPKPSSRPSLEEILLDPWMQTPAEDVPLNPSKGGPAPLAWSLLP

[7] = target: T1, cAMP-dependent protein kinase catalytic subunit PRKX (Homo sapiens) (UniProt P51817); settings: at 10 µM
T1 sequence (whole entry): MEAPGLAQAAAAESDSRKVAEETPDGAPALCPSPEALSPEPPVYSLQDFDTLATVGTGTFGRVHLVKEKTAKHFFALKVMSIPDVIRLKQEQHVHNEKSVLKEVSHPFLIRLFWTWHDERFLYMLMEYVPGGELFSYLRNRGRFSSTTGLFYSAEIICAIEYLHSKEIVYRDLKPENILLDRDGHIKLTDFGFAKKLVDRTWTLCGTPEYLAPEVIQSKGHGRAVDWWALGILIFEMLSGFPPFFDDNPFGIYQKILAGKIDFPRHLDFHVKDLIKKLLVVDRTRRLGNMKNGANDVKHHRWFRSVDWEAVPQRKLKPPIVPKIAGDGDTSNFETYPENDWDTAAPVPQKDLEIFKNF

[8] = target: T2, Cyclin-dependent kinase-like 5 (Homo sapiens) (UniProt O76039); experiment: Selectivity interaction (KinomeScan (DiscoverX)) EUB0000595a CDKL5; settings: at 10 µM
T2 sequence (whole entry): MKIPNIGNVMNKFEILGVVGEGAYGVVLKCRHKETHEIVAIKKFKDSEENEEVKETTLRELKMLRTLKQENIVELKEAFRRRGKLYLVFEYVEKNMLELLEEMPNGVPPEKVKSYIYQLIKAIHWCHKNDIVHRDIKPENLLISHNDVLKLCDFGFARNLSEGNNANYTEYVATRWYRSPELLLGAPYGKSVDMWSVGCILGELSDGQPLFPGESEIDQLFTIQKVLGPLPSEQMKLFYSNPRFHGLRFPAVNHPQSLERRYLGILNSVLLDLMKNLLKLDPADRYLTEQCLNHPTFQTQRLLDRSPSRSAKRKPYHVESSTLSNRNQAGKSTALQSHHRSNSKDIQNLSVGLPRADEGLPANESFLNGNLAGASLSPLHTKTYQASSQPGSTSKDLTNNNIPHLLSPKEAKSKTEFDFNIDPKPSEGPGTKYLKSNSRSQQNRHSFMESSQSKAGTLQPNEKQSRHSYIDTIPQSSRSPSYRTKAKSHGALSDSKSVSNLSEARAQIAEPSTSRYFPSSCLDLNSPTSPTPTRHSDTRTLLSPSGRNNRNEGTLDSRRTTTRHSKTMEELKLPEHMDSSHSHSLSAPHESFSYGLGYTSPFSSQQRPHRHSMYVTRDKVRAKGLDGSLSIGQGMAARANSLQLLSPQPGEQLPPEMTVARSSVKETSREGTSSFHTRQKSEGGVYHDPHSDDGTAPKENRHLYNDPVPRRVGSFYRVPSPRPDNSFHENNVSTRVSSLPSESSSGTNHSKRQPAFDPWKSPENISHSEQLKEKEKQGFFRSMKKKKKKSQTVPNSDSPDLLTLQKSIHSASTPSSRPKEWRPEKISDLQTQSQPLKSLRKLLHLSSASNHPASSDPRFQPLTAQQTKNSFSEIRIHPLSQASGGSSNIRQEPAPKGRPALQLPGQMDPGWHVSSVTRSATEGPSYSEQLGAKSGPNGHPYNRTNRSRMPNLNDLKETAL

[9] = target: Tyrosine-protein kinase ABL1 (Homo sapiens, UniProt P00519); experiment: Selectivity interaction (Kinase panel (enzymatic assay)) EUB0000595a ABL1
[10] = target: Ribosomal protein S6 kinase alpha-1 (Homo sapiens, UniProt Q15418); experiment: Selectivity interaction (KinomeScan (DiscoverX)) EUB0000655a RPS6KA1; settings: at 10 µM
[11] = target: T3, Cyclin-dependent kinase 11A (Homo sapiens) (UniProt Q9UQ88); experiment: Selectivity interaction (ActivX KiNativ screen (ex vivo kinase selectivity in human PBMCs)) EUB0001619a CDK11A; assay type: cell-based; settings: PBMC, at 1 µM
T3 sequence (whole entry): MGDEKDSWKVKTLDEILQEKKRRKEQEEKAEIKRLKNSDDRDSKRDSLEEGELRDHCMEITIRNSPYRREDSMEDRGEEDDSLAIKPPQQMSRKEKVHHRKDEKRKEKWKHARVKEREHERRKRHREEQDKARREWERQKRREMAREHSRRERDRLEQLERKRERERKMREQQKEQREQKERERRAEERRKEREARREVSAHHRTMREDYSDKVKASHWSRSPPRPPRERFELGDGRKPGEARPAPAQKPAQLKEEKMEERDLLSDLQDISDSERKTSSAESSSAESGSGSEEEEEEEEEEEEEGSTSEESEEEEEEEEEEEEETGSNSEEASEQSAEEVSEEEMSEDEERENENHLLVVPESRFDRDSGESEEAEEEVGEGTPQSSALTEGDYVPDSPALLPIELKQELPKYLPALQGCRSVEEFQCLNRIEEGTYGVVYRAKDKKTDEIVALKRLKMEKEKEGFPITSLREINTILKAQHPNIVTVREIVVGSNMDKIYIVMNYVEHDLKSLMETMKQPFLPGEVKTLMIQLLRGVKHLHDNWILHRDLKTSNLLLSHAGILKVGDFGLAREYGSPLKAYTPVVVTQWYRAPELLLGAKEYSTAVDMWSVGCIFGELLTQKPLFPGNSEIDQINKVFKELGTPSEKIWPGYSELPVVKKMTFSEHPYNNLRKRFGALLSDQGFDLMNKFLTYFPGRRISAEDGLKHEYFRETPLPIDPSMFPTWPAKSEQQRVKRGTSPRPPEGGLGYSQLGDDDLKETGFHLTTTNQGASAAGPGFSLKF

[12] = target: Mitogen-activated protein kinase kinase kinase kinase 1 (Homo sapiens) (UniProt Q92918); experiment: Selectivity interaction (KinomeScan (DiscoverX)) EUB0000618a MAP4K1; settings: at 10 µM
Chain of Mitogen-activated protein kinase kinase kinase kinase 1 (Homo sapiens) (Q92918 whole entry, looked up): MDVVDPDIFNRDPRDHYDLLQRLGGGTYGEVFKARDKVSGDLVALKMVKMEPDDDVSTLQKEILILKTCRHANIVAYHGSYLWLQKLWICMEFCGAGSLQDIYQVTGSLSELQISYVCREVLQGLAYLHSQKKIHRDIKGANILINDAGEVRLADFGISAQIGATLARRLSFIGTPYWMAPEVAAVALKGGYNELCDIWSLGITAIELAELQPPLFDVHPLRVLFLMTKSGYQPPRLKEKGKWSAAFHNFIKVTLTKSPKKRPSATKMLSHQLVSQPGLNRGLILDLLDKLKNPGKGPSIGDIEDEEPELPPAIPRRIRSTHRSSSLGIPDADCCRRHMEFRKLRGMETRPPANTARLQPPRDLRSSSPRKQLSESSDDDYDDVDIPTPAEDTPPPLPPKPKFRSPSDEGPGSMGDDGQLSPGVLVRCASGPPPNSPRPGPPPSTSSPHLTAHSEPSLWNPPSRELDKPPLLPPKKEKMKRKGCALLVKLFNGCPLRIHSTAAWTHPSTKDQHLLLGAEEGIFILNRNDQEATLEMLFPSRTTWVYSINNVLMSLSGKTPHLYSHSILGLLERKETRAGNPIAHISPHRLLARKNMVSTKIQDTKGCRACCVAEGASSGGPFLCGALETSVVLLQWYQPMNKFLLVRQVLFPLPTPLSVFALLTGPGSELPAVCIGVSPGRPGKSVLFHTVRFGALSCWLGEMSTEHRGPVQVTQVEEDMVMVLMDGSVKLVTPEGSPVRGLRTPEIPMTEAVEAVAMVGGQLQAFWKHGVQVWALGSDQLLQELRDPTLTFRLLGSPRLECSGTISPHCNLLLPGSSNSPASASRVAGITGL

Chain of Casein kinase I isoform alpha (P48729 2-337 limits assumed): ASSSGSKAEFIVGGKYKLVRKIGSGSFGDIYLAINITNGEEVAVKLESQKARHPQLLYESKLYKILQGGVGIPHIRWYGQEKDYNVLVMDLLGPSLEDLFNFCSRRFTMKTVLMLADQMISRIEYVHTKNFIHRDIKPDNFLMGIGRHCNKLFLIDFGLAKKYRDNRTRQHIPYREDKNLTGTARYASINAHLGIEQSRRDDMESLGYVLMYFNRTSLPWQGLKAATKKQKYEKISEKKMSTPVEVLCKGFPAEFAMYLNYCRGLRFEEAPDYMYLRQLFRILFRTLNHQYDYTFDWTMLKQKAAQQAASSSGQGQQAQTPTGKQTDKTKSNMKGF

SMILES: CN(C)C/C=C/C(=O)Nc1ccc(C(=O)N2CCCC(Nc3ncc(Cl)c(-c4c[nH]c5ccccc45)n3)C2)cc1 (configuration not stated)
% of control [1]: 51% | % of control [2]: 91%

% of inhibition [3]: -7.6% | % of inhibition [4]: -0.0574%
SMILES: CC[C@@H]1[C@H](F)C(=O)N[C@@H]1COc1nccc2cc(C(N)=O)c(OC)cc12 [ZIMLOVISERTIB]

% of control [5]: -0.444%
SMILES: Cn1cc(-n2cnc3c(NCc4nc5cc(Cl)c(Cl)cc5[nH]4)nc(N4CCOCC4)nc32)cn1

SMILES: Cc1cc(F)c(C(=O)Nc2cccc(-c3nncn3C(C)C)n2)cc1-n1cnc(C2CC2)c1
% of control [6]: 78%

% of control [7]: 100%
SMILES: CCN(CC)CCCCNc1ncc2cc(-c3cc(OC)cc(OC)c3)c(NC(=O)NC(C)(C)C)nc2n1

SMILES: COCC(=O)NC/C=C/c1ccc2ncnc(Nc3ccc(Oc4ccc(C)nc4)c(C)c3)c2c1 [CP-724714]
% of control [8]: 100% | IC50 [9]: > 10 µM

SMILES: CN(C)CCOc1ccc(-c2nc(-c3ccncc3)c(-c3ccc4c(c3)CC/C4=N\O)[nH]2)cc1
% of control [10]: 81%

SMILES: N#Cc1cccc(-c2c[nH]c3ncnc(N4CCOCC4)c23)c1
% of inhibition [11]: 36%

SMILES: O[C@H]1CC[C@H](Nc2ncc3nc(Nc4c(F)cc(F)cc4F)n([C@H]4CCOC4)c3n2)CC1
% of control [12]: 83%
